Source: article PMC8343220, “The selectivity of α‐adrenoceptor agonists for the human α1A, α1B, and α1D‐adrenoceptors” (Pharmacology Research & Perspectives, 2021)
Like-named read-outs stand apart in the source and are kept apart here.

Columns and labels:
human α1B‐adrenoceptor [1] = molecular target: T1, human α1B‐adrenoceptor (Homo sapiens, UniProt P35368); assay: Intracellular free calcium mobilization, CHO‐α1B cells; format: cell-based
T1 construct: expressed in transfected cells; host or cells: CHO-K1
T1 sequence (P35368 1-520): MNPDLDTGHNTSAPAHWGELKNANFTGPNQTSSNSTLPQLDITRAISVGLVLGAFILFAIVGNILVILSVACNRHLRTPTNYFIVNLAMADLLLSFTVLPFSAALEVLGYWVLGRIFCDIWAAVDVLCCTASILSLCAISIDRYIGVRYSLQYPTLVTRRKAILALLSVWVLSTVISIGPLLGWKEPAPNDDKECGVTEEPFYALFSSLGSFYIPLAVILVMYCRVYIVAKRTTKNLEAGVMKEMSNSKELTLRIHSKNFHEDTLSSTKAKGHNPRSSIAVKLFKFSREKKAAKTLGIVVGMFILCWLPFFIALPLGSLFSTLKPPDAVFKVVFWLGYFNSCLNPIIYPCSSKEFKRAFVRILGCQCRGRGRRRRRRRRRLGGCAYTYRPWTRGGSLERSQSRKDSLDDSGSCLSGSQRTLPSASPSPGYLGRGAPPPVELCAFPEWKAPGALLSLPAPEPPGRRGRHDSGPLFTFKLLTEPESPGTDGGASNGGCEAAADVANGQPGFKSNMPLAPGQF

human α1B‐adrenoceptor [2] = molecular target: T1, human α1B‐adrenoceptor; assay: ERK1/2‐phosphorylation (Surefire Alphascreen), CHO‐α1B cells; format: cell-based
human α1B‐adrenoceptor [3] = molecular target: T1, human α1B‐adrenoceptor; assay: ^3H‐prazosin whole‐cell radioligand binding, CHO‐α1B cells
[4] = test system: parental CHO cell line without any transfected receptors; assay: ERK1/2‐phosphorylation, parent CHO cells without transfected receptors; format: cell-based, Chinese hamster; conditions: for ERK1/2-phosphorylation % PDBu: maximal response as % of PDBu (10μM) response
[5] = molecular target: T2, human α1D‐adrenoceptor (full length) (Homo sapiens, UniProt P25100); assay: Intracellular free calcium mobilization, CHO‐α1D cells; format: cell-based; conditions: for Intracellular calcium release % ionomycin: maximal response as % of 10 µM ionomycin
T2 construct: human α1D‐adrenoceptor (full length) were used; expressed in transfected cells; host or cells: CHO-K1
T2 sequence (P25100 1-572): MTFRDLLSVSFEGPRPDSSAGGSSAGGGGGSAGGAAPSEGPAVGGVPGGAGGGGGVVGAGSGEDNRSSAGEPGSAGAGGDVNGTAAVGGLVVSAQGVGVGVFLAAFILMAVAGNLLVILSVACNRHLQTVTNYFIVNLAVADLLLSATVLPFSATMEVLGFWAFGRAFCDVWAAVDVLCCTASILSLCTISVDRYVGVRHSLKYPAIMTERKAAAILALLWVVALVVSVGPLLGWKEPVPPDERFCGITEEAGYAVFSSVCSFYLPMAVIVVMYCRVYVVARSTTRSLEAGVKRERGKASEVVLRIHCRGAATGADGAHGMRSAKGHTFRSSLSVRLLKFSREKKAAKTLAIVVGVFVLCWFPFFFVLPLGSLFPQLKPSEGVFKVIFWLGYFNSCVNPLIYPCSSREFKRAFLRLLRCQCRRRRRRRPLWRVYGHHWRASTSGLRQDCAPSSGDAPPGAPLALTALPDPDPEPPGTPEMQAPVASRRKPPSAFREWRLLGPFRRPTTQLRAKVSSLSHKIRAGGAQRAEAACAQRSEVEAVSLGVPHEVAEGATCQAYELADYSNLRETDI

[6] = molecular target: T2, human α1D‐adrenoceptor (full length); assay: ^3H‐prazosin whole‐cell radioligand binding, CHO‐α1D cells
[7] = molecular target: T2, human α1D‐adrenoceptor (full length); assay: ERK1/2‐phosphorylation (Surefire Alphascreen), CHO‐α1D cells; format: cell-based
human α1A‐adrenoceptor [8] = molecular target: T3, human α1A‐adrenoceptor (Homo sapiens, UniProt P35348); assay: ^3H‐prazosin whole‐cell radioligand binding, CHO‐α1A cells
T3 construct: expressed in transfected cells; host or cells: CHO-K1
T3 sequence (P35348 1-466): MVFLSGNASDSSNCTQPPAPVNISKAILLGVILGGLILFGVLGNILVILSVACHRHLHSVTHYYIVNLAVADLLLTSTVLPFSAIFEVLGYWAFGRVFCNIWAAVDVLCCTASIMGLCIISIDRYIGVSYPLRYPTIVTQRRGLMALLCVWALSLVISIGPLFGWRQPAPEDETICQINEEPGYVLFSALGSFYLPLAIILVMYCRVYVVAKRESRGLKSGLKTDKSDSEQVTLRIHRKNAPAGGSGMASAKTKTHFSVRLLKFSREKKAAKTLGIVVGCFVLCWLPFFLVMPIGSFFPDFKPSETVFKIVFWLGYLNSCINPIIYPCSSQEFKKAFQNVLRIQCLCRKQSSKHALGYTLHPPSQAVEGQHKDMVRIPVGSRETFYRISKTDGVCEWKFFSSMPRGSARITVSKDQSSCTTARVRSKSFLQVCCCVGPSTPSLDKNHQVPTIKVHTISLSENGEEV

human α1A‐adrenoceptor [9] = molecular target: T3, human α1A‐adrenoceptor; assay: Intracellular free calcium mobilization, CHO‐α1A cells; format: cell-based
[10] = CHO‐α1D cells, log values given negative
[11] = CHO cells without transfected receptors, mean ± s.e.m.

## c1ccc2c(c1)CCCC2C1=NCCN1 (centres unmarked) [Tetrohydrozoline]
Human α1B‐adrenoceptor [1]
  Intracellular calcium release % Ionomycin at 100 µM: 2.9 ± 1.4%
Human α1B‐adrenoceptor [2]
  ERK1/2‐phosphorylation % PDBu: No response
  ERK1/2‐phosphorylation Log EC50: No response
Human α1B‐adrenoceptor [3]
  Log KD, ^3H‐prazosin binding: −5.22

## CCCC(=O)O[C@@H]1[C@@H](C)[C@@]2(O)[C@@H](C=C(CO)C[C@]3(O)C(=O)C(C)=C[C@@H]23)[C@@H]2C(C)(C)[C@]12OC(=O)CCC [PDBu, Phorbol 12,13‐dibutyrate]
[4]
  ERK1/2‐phosphorylation response fold over basal: 7.5 ± 0.9 fold over basal

## CCN1CCc2nc(N)oc2CC1 [BHT933]
Human α1B‐adrenoceptor [1]; CHO‐α1B cells, response at 100 µM ligand (no EC50 given), % of ionomycin response
  Intracellular calcium release % Ionomycin at 100 µM: 16.6 ± 2.1%
[5]; [10]
  Intracellular calcium release Log EC50: No response
[5]; CHO‐α1D cells
  Intracellular calcium release % ionomycin: No response
[6]; CHO‐α1D cells, whole‐cell binding (from Table 1), log values given negative
  3H‐prazosin binding Log KD: −3.70
[6]; CHO‐α1D cells, apparent KD: maximum concentration did not inhibit all specific binding, IC50 extrapolated
  Log KD α1D (apparent), ^3H‐prazosin whole cell binding: −3.70 ± 0.18^apparent
[6]; higher affinity for α1D than α1A
  Affinity selectivity ratio α1A vs α1D: 1.3 fold
[7]; [10]
  ERK1/2‐phosphorylation Log EC50: No response
[7]; CHO‐α1D cells, maximal response as % of PDBu
  ERK1/2‐phosphorylation % PDBu: No response
Human α1A‐adrenoceptor [8]; CHO‐α1A cells, apparent KD: maximum concentration did not inhibit all specific binding, IC50 extrapolated
  Log KD α1A (apparent), ^3H‐prazosin whole cell binding: −3.60 ± 0.06^apparent
Human α1A‐adrenoceptor [8]; higher affinity for α1A than α1B
  Affinity selectivity ratio α1A vs α1B: >4.0 fold
Human α1A‐adrenoceptor [9]; CHO‐α1A cells, response at 100 μM ligand, no EC50 obtained
  Intracellular calcium release % Ionomycin at 100 µM: 25.5 ± 3.7%
Human α1B‐adrenoceptor [3]; CHO‐α1B cells, whole‐cell binding (from Table 1), given as log KD (negative numbers)
  Log KD, ^3H‐prazosin binding: No binding
Human α1B‐adrenoceptor [3]; CHO‐α1B cells, given as log KD (negative), mean ± SEM
  Log KD α1B, ^3H‐prazosin whole cell binding: No binding

## O=C1Cc2cc(CCN3CCN(c4nsc5ccccc45)CC3)c(Cl)cc2N1 [ziprasidone]
[4]; [11]
  ERK1/2-phosphorylation % PDBu: No response
  ERK1/2-phosphorylation Log EC50: No response

## O=C1Cc2cc(CCN3CCN(c4nsc5ccccc45)CC3)c(Cl)cc2N1 [Ziprasidone]
[5]; [10]
  Intracellular calcium release Log EC50: No response
[5]; CHO‐α1D cells
  Intracellular calcium release % ionomycin: No response
[7]; CHO‐α1D cells, response at 10 µM ligand (no EC50 given)
  ERK1/2‐phosphorylation % PDBu at 10 µM: 4.6 ± 2.7%

## Cc1ccc(/N=C/N(C)/C=N/c2ccc(C)cc2C)c(C)c1 [Amitraz]
Human α1B‐adrenoceptor [1]
  Intracellular calcium release Log EC50: No response
[5]
  Intracellular calcium release Log EC50: No response
[6]
  Affinity selectivity ratio α1B vs α1D: >12.0 fold
[7]
  ERK1/2‐phosphorylation % PDBu: No response
  ERK1/2‐phosphorylation Log EC50: No response
Human α1A‐adrenoceptor [8]
  Affinity selectivity ratio α1A vs α1B: >33.1 fold
[4]
  ERK1/2-phosphorylation Log EC50: No response
[4]; [11]
  ERK1/2-phosphorylation % PDBu: No response
Human α1A‐adrenoceptor [9]
  Intracellular calcium release Log EC50: No response
